Laboratory results published in PubChem BioAssay (NCI).
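Method: 48-hour compound exposure of cells in 96-well plates, five concentrations, linear interpolation of endpoints. The concentration for full growth arrest is given as TGI.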

Experiments:
Test in all cases: NCI anticancer screen, dose series, 48 h
[1] = system: UACC-257 melanoma
[2] = system: ACHN renal
[3] = system: 786-0 renal
[4] = system: NCI-H226 lung
[5] = system: CCRF-CEM leukemia
[6] = system: IGROV1 ovarian
[7] = system: MOLT-4 leukemia
[8] = system: HCC-2998 colon
[9] = system: HT29 colon
[10] = system: A498 renal
[11] = system: SK-OV-3 ovarian

SMILES | TGI [1] [µM] | TGI [2] [µM] | TGI [3] [µM] | TGI [4] [µM] | TGI [5] [µM] | TGI [6] [µM] | TGI [7] [µM] | TGI [8] [µM] | TGI [9] [µM] | TGI [10] [µM] | TGI [11] [µM]
CC(=O)OCC1OC(NC(=S)Nn2c(-c3ccccc3)nc3ccccc3c2=O)C(OC(C)=O)C(OC(C)=O)C1OC(C)=O (centres undefined) | > 100 | > 100 | > 100 | > 100 | > 100 | > 100 | > 100 | > 100 | > 100 | > 100 | > 100
O=C(O)c1ccc2nc(-c3ccccn3)c(-c3ccccn3)nc2c1 | > 100 | > 100 | > 100 | > 100 | > 100 | > 100 | > 100 | > 100 | > 100 | > 100 | > 100
O=[N+]([O-])C1=Cc2c(O)ccc(O)c2C2c3ccccc3NC12 (centres undefined) | 29.3 | 16 | 24.7 | > 100 | > 22.7 | 32.7 | > 44.5 | 24.7 | 26.4 | 29.8 | > 100
COC(=O)c1nc2n(n1)-c1ccccc1C(=O)N(Cc1ccccc1)C2 | > 100 | > 100 | > 100 | > 100 | > 100 | > 100 | > 100 | > 100 | > 100 | > 100 | > 100
CS(=O)(=O)Sc1ccc(Cl)cc1 | 20.6 | – | 19.2 | 20.6 | 8.89 | 8 | 21.7 | 24 | 22.6 | 7.48 | 43.9
CC(C)c1cc(C(C)C)c(S(=O)(=O)N/N=C2\CC3CCC2(C)C3(C)C)c(C(C)C)c1 (centres undefined) | 26.2 | > 100 | > 100 | 80 | 22.8 | > 100 | 40 | > 100 | 43.8 | 32.7 | > 100
O=[N+]([O-])c1ccc(-c2ccc([C@H]3CC(c4cc(F)c(Cl)cc4Cl)=NN3)o2)cc1 | > 100 | > 100 | > 100 | 58.9 | 35.1 | > 100 | 41 | 38.7 | > 100 | > 100 | > 100
CN(C)CCCCN1c2ccccc2Sc2ccc(N=[N+]=[N-])cc21 | 3.54 | 12.3 | 23.6 | 17.7 | 8.39 | 11.7 | 5.85 | 3.18 | 5.22 | 21.5 | 26.5
Nc1cc2c(C3OC(CO)C(O)C3O)[nH]nc2c(=S)[nH]1 (centres undefined) | > 100 | > 100 | > 100 | > 100 | > 100 | > 100 | > 100 | > 100 | > 100 | > 100 | > 100
O=[N+]([O-])c1cccc(-c2ccc([C@H]3CC(c4ccc(Cl)cc4)=NN3)o2)c1 | 83.9 | 34.4 | 28.5 | 45.8 | 90.8 | > 100 | 29.1 | 38.1 | 56.9 | 88.2 | 54.5
COc1cc(Nc2nc(NS(=O)(=O)c3cc(C)c(Cl)cc3S)n[nH]2)cc(OC)c1OC | > 100 | > 100 | > 100 | > 100 | > 100 | > 100 | > 100 | > 100 | > 100 | > 100 | > 100
O=c1[nH]c2ccccc2c(=O)c2cc3ccccc3cc12 | > 100 | > 100 | 21.9 | 45.8 | > 100 | > 100 | > 100 | > 100 | > 100 | 48.4 | 30.6
C/C(=N\NC(N)=O)C(CN1CCOCC1)C(c1ccccc1)c1c(O)c2ccccc2oc1=O (centres undefined) | > 100 | > 100 | > 100 | > 100 | > 100 | > 100 | > 100 | > 100 | > 100 | 91.8 | > 100
Cc1cccc2c(=O)c3cccc(CC(=O)O)c3oc12 | > 100 | > 100 | > 100 | > 100 | > 100 | > 100 | > 100 | > 100 | > 100 | > 100 | > 100
O=c1oc2cc(O)ccc2c(O)c1C(c1ccc(/C=C/c2ccccc2)cc1)c1c(O)c2ccc(O)cc2oc1=O | > 100 | > 100 | > 100 | > 100 | > 100 | > 100 | 64.1 | > 100 | > 100 | > 100 | > 100
CSc1cnc2ccccc2c1Sc1cn(C)c2ccccc2c1=O | > 100 | > 100 | > 100 | 73.8 | > 100 | > 100 | > 100 | > 100 | > 100 | > 100 | 44.5
COc1ccc(Cc2nc3cc(C(F)(F)F)ccc3n2C[C@@H]2CCCN3CCCCC23)cc1 (some centres undefined) | 6.77 | 22.5 | 20.3 | 37 | > 44.5 | 15.7 | 31.7 | 5.94 | 15.4 | 14.1 | 28.4
CC(C)CCNC(=O)c1ccc(CNC(=O)/C=C/c2ccc3c(c2)-c2ccccc2C3)cc1 | > 100 | > 100 | 81.1 | > 100 | > 100 | > 100 | > 100 | > 100 | > 100 | > 100 | > 100
O=C1C/C(=C\c2ccccc2)C(=O)c2ccccc2N1 | 48.6 | 58.4 | 34.5 | 80.4 | 49.8 | 38 | > 100 | 37.9 | 36.5 | 35.4 | 68
CC(C)C1CC(CO)(CNc2nc(N)nc(Cl)c2C=O)C1 (centres undefined) | 6.06 | 22.8 | > 100 | 26.3 | 6.36 | 3.52 | 5.08 | 4.32 | 6.42 | 56.1 | 61.7
COc1cc(CCNC2=CC(=O)c3ncccc3C2=O)ccc1O | 4.28 | 29 | 18.1 | 6.62 | > 100 | 10.1 | 22.8 | 16.8 | 28.4 | 32.4 | 41.7
COc1ccc2nc3cc(Cl)ccc3c(NCCCN(C)CCCNc3ccc4ncn5c6ccccc6c(=O)c3c45)c2c1 | 6.81 | 3.93 | 8.7 | 1.98 | > 25 | 4.37 | > 5.72 | 0.423 | 0.69 | 6.52 | 6.04
CCO/C=N\C1=C(C#N)SC2=N/C(=C\c3ccco3)C(=O)N21 | > 100 | > 100 | > 100 | > 100 | > 100 | > 100 | > 100 | > 100 | > 100 | > 100 | > 100
c1ccc2sc(C3(N4CCCCCC4)CCCCC3)cc2c1 | 50 | 83.8 | 42.9 | 42.9 | 33.3 | > 100 | 31.5 | 29.4 | 36.8 | 36.8 | > 100
Nc1nc(NCc2ccccc2)cc(NCc2ccccc2)n1 | 21.6 | 28.1 | 22.5 | 27.5 | > 100 | 23.9 | > 100 | 24.6 | 11.9 | 14.5 | 33.7
CC(=O)O[C@H]1CC[C@@]2(C)C(=CC[C@@H]3[C@@H]2CC[C@]2(C)C(=O)/C(=C\c4ccccc4)C[C@@H]32)C1 | > 100 | > 100 | > 100 | > 100 | > 100 | > 100 | > 100 | > 100 | > 100 | > 100 | > 100
N#Cc1nc(CCC(C(=O)O)N2C(=O)c3ccccc3C2=O)oc1N (centres undefined) | > 100 | > 100 | > 100 | > 100 | > 100 | > 100 | > 100 | > 100 | > 100 | > 100 | > 100
COC(=O)C#CC1(O)C=CC(=O)C=C1 | 3.64 | 10.1 | 1.82 | 20.8 | 0.758 | 2.85 | 0.0794 | 8.15 | 13.5 | > 100 | > 100
O=C1C(CN2CCCC2)CCC1CN1CCCC1 (centres undefined) | 32.6 | 29.3 | 29.8 | > 74.4 | > 60.1 | > 82.3 | 39.9 | > 100 | 40.7 | > 100 | > 100
C(#C[C@@]12CCC[C@@H]1NCO2)c1ccc2c(c1)OCO2 | > 100 | > 100 | > 100 | > 100 | > 100 | > 100 | 67.7 | 34.6 | > 100 | > 100 | > 100
